Columns and labels:
[1] = test system: antibodies in sera from SARS patients (sera 1a, 1b, 2, 6, 37, 62, London, SARS-yellow, SARS-green); format: binding, human; design: Binding of serum 6 to linear peptides of protein X1 of SARS-CoV Urbani / Binding of serum 37 to linear peptides of protein X1 of SARS-CoV Urbani / Binding of serum 6 to looped/cyclic peptide (PEPSCAN-ELISA) / Binding of serum 37 to looped/cyclic peptide (PEPSCAN-ELISA) / Binding of serum 37 to looped/cyclic peptides of protein X1 of SARS-CoV Urbani / Binding of serum 6 to linear peptides of protein X2 / Binding of serum 37 to linear peptides of protein X2 / Binding of serum 37 to looped/cyclic peptides of protein X2 of SARS-CoV Urbani / Binding of serum 6 to linear peptides of protein M of SARS-CoV Urbani / Binding of serum 37 to linear peptides of protein M of SARS-CoV Urbani / Binding of serum 6 to looped/cyclic peptides of protein M of SARS-CoV Urbani / Binding of serum 37 to looped/cyclic peptides of protein M of SARS-CoV Urbani / Binding of serum 6 to linear peptides of protein X3 of SARS-CoV Urbani / Binding of serum 37 to linear peptides of protein X3 of SARS-CoV Urbani / Binding of serum 37 to looped/cyclic peptides of protein X3 of SARS-CoV Urbani / Binding of serum 6 to linear peptides of protein X4 of SARS-CoV Urbani / Binding of serum 37 to linear peptides of protein X4 of SARS-CoV Urbani / Binding of serum 37 to looped/cyclic peptides of protein X4 of SARS-CoV Urbani / Binding of serum 6 to linear peptides of protein X5 of SARS-CoV Urbani / Binding of serum 37 to linear peptides of protein X5 of SARS-CoV Urbani / Binding of serum 37 to looped/cyclic peptides of protein X5 of SARS-CoV Urbani / Binding of serum 6 to linear peptides of protein N of SARS-CoV Urbani / Binding of serum 37 to linear peptides of protein N of SARS-CoV Urbani / Binding of serum 6 to linear peptide (PEPSCAN-ELISA) / Binding of serum 1a to looped/cyclic peptides of protein N of SARS-CoV Urbani / Binding of serum 1b to looped/cyclic peptides of protein N of SARS-CoV Urbani / Binding of serum 2 to looped/cyclic peptides of protein N of SARS-CoV Urbani / Binding of serum 6 to looped/cyclic peptides of protein N of SARS-CoV Urbani / Binding of serum 37 to looped/cyclic peptides of protein N of SARS-CoV Urbani / Binding of serum 62 to looped/cyclic peptides of protein N of SARS-CoV Urbani / Binding of serum London to looped/cyclic peptides of protein N of SARS-CoV Urbani / Binding of serum SARS-green to looped/cyclic peptides of protein N of SARS-CoV Urbani: unit not given here
[2] = test system: control sera (pooled serum of ten healthy LUMC hospital workers; commercial negative donor pooled serum from the Dutch bloodbank); format: binding, human
[3] = test system: rabbit serum obtained by immunizing a rabbit with the SARS-CoV strain Frankfurt 1; format: binding; design: Binding of a rabbit serum to linear peptides / Binding of a rabbit serum to looped peptides / Rabbit serum linear peptides / Rabbit serum looped peptides / Binding of a rabbit serum to linear peptides of protein N of SARS-CoV Urbani (Rabbit serum linear peptides) / Binding of a rabbit serum to looped/cyclic peptides of protein N of SARS-CoV Urbani (Rabbit serum looped peptides): unit not given here

Sequence: LIVNSVLLFLAFVVF
- Binding of serum 1a to linear peptides of protein E of SARS-CoV Urbani [1]: 0.8
- Binding of serum 1a to looped/cyclic peptides of protein E of SARS-CoV Urbani [1]: 0.5
- Binding of serum 1b to linear peptides of protein E of SARS-CoV Urbani [1]: 0.6
- Binding of serum 1b to looped/cyclic peptides of protein E of SARS-CoV Urbani [1]: 0.4
- Binding of serum 2 to linear peptides of protein E of SARS-CoV Urbani [1]: 0.4
- Binding of serum 2 to looped/cyclic peptides of protein E of SARS-CoV Urbani [1]: 0.5
- Binding of serum 6 to linear peptides of protein E of SARS-CoV Urbani [1]: 0.7
- Binding of serum 6 to looped/cyclic peptides of protein E of SARS-CoV Urbani [1]: 0.4
- Binding of serum 37 to linear peptides of protein E of SARS-CoV Urbani [1]: 0.6
- Binding of serum 37 to looped/cyclic peptides of protein E of SARS-CoV Urbani [1]: 0.5
- Binding of serum 62 to linear peptides of protein E of SARS-CoV Urbani [1]: 0.6
- Binding of serum 62 to looped/cyclic peptides of protein E of SARS-CoV Urbani [1]: 0.6
- Binding of serum London to linear peptides of protein E of SARS-CoV Urbani [1]: 0.4
- Binding of serum London to looped/cyclic peptides of protein E of SARS-CoV Urbani [1]: 0.3
- Binding of serum SARS-green to linear peptides of protein E of SARS-CoV Urbani [1]: 0.4
- Binding of serum SARS-green to looped/cyclic peptides of protein E of SARS-CoV Urbani [1]: 0.2
- Binding of serum SARS-yellow to linear peptides of protein E of SARS-CoV Urbani [1]: 0.3
- Binding of serum SARS-yellow to looped/cyclic peptides of protein E of SARS-CoV Urbani [1]: 0.5
- Binding of Control Serum Blood-Bank to Looped peptides [2]: 0.8
- Binding of Control serum Blood-bank to linear peptides [2]: 0.5
- Binding of Control serum LUMC to linear peptides [2]: 0.3
- Binding of Control serum LUMC to looped peptides [2]: 0.8
- Binding of a rabbit serum to linear peptides [3]: 0.5
- Binding of a rabbit serum to looped peptides [3]: 0.3

Sequence: VDFQVTIAEILIIIM
- Binding of serum 1a to linear peptides of protein X3 of SARS-CoV Urbani [1]: 0.8
- Binding of serum 1a to looped/cyclic peptides of protein X3 of SARS-CoV Urbani [1]: 0.7
- Binding of serum 1b to linear peptides of protein X3 of SARS-CoV Urbani [1]: 0.5
- Binding of serum 1b to looped/cyclic peptides of protein X3 of SARS-CoV Urbani [1]: 0.4
- Binding of serum 2 to linear peptides of protein X3 of SARS-CoV Urbani [1]: 0.7
- Binding of serum 2 to looped/cyclic peptides of protein X3 of SARS-CoV Urbani [1]: 0.6
- Binding of serum 6 to linear peptides of protein X3 of SARS-CoV Urbani [1]: 0.5
- Binding of serum 6 to looped/cyclic peptides of protein X3 of SARS-CoV Urbani [1]: 0.3
- Binding of serum 37 to linear peptides of protein X3 of SARS-CoV Urbani [1]: 0.5
- Binding of serum 37 to looped/cyclic peptides of protein X3 of SARS-CoV Urbani [1]: 0.6
- Binding of serum 62 to linear peptides of protein X3 of SARS-CoV Urbani [1]: 0.6
- Binding of serum 62 to looped/cyclic peptides of protein X3 of SARS-CoV Urbani [1]: 0.6
- Binding of serum London to linear peptides of protein X3 of SARS-CoV Urbani [1]: 0.6
- Binding of serum London to looped/cyclic peptides of protein X3 of SARS-CoV Urbani [1]: 0.2
- Binding of serum SARS-green to linear peptides of protein X3 of SARS-CoV Urbani [1]: 0.4
- Binding of serum SARS-green to looped/cyclic peptides of protein X3 of SARS-CoV Urbani [1]: 0.3
- Binding of serum SARS-yellow to linear peptides of protein X3 of SARS-CoV Urbani [1]: 0.6
- Binding of serum SARS-yellow to looped/cyclic peptides of protein X3 of SARS-CoV Urbani [1]: 0.8
- Binding of Control Serum Blood-Bank to Looped peptides of the protein X3 of SARS-CoV Urbani [2]: 0.6
- Binding of Control serum Blood-bank to linear peptides of the protein X3 of SARS-CoV Urbani [2]: 0.8
- Binding of Control serum LUMC to linear peptides of the protein X3 of SARS-CoV Urbani [2]: 0.8
- Binding of Control serum LUMC to looped peptides of the protein X3 of SARS-CoV Urbani [2]: 0.8
- Rabbit serum linear peptides [3]: 0.3
- Rabbit serum looped peptides [3]: 0.3

Sequence: VTLAILTALRLCAYC
- Binding of serum 1a to linear peptides of protein E of SARS-CoV Urbani [1]: 0.6
- Binding of serum 1a to looped/cyclic peptides of protein E of SARS-CoV Urbani [1]: 0.7
- Binding of serum 1b to linear peptides of protein E of SARS-CoV Urbani [1]: 0.5
- Binding of serum 1b to looped/cyclic peptides of protein E of SARS-CoV Urbani [1]: 0.5
- Binding of serum 2 to linear peptides of protein E of SARS-CoV Urbani [1]: 0.6
- Binding of serum 2 to looped/cyclic peptides of protein E of SARS-CoV Urbani [1]: 0.9
- Binding of serum 6 to linear peptides of protein E of SARS-CoV Urbani [1]: 0.3
- Binding of serum 6 to looped/cyclic peptides of protein E of SARS-CoV Urbani [1]: 0.6
- Binding of serum 37 to linear peptides of protein E of SARS-CoV Urbani [1]: 0.4
- Binding of serum 37 to looped/cyclic peptides of protein E of SARS-CoV Urbani [1]: 0.6
- Binding of serum 62 to linear peptides of protein E of SARS-CoV Urbani [1]: 0.4
- Binding of serum 62 to looped/cyclic peptides of protein E of SARS-CoV Urbani [1]: 0.8
- Binding of serum London to linear peptides of protein E of SARS-CoV Urbani [1]: 0.5
- Binding of serum London to looped/cyclic peptides of protein E of SARS-CoV Urbani [1]: 0.5
- Binding of serum SARS-green to linear peptides of protein E of SARS-CoV Urbani [1]: 0.5
- Binding of serum SARS-green to looped/cyclic peptides of protein E of SARS-CoV Urbani [1]: 0.5
- Binding of serum SARS-yellow to linear peptides of protein E of SARS-CoV Urbani [1]: 0.2
- Binding of serum SARS-yellow to looped/cyclic peptides of protein E of SARS-CoV Urbani [1]: 0.7
- Binding of Control Serum Blood-Bank to Looped peptides [2]: 0.9
- Binding of Control serum Blood-bank to linear peptides [2]: 0.5
- Binding of Control serum LUMC to linear peptides [2]: 0.6
- Binding of Control serum LUMC to looped peptides [2]: 0.8
- Binding of a rabbit serum to linear peptides [3]: 0.1
- Binding of a rabbit serum to looped peptides [3]: 0.4
